# From US20090304692A1, “TRIAZINE COMPOUNDS AS PI3 KINASE AND MTOR INHIBITORS” (Wyeth, priority 2008, published 2009)
# Like-named read-outs stand apart in the source and are kept apart here.
# Assays:
# PI3K-α = PI3K-α (Homo sapiens, UniProt P42336); assay: PI3K-alpha fluorescence polarization assay; conditions: read-out: IC50 PI3Kα
# PI3K-γ = PI3K-γ (Homo sapiens, UniProt P48736); assay: PI3K-gamma fluorescence polarization assay; conditions: read-out: IC50 PI3Kγ
# [1] = test system: human prostate LNCap tumor cell line; assay: In vitro cell culture growth assay (MTS), LNCap; conditions: read-out: IC50 LNCap
# Human mTOR (FLAG-TOR) = Human mTOR (FLAG-TOR) (Homo sapiens, UniProt P42345); assay: mTOR kinase assay (DELFIA format, purified enzyme); type: biochemical; conditions: read-out: IC50 mTOR
# Sequence of Human mTOR (FLAG-TOR) (P42345 1360-2549 limits assumed): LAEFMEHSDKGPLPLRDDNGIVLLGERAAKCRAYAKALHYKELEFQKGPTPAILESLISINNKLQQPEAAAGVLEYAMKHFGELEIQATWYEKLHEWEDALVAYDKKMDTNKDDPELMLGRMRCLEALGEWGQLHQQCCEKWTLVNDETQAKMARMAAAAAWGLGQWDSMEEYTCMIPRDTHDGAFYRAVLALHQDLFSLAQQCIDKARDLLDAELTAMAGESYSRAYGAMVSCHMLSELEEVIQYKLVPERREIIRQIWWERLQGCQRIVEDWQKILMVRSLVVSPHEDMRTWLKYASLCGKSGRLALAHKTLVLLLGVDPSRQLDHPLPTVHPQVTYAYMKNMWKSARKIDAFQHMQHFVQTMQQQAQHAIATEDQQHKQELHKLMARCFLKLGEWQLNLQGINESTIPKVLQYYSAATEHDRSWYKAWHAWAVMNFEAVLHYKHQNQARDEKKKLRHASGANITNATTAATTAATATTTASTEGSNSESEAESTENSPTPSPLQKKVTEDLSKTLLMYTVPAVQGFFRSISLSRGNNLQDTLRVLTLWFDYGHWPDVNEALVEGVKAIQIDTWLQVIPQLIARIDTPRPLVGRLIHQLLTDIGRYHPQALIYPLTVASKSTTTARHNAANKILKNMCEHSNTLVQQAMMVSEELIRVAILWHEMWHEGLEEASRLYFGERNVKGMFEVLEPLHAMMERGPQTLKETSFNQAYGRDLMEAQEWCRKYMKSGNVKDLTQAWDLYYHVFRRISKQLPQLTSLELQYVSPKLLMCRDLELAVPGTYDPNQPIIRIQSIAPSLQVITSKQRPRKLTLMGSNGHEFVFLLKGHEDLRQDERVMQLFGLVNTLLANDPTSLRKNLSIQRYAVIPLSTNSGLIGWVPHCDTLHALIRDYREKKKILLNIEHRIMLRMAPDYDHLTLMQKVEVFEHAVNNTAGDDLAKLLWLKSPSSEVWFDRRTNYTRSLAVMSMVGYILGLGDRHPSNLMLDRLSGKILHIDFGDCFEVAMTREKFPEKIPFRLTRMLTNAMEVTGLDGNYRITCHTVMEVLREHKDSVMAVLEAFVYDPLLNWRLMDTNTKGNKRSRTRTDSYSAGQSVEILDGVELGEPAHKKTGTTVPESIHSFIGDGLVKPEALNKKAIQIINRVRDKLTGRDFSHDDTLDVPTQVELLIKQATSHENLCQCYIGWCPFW
# [2] = test system: human breast MDA-MB-361 tumor cell line; assay: In vitro cell culture growth assay (MTS), MDA-MB-361; type: cell-based; conditions: Homo sapiens, MDA-MB-361 cells, MTS, three days after drug treatment, read-out: IC50 MDA-MB-361
# [3] = test system: human prostate PC3-mm2 tumor cell line; assay: In vitro cell culture growth assay (MTS), PC3-mm2; type: cell-based; conditions: Homo sapiens, PC3MM2, 72 h, PC3-mm2 cells, MTS, three days after drug treatment; read-out: IC50 PC3-mm2
# [4] = MTS cell growth assay, three days after drug treatment
# Sequence of PI3K-α (P42336 whole entry, species assumed): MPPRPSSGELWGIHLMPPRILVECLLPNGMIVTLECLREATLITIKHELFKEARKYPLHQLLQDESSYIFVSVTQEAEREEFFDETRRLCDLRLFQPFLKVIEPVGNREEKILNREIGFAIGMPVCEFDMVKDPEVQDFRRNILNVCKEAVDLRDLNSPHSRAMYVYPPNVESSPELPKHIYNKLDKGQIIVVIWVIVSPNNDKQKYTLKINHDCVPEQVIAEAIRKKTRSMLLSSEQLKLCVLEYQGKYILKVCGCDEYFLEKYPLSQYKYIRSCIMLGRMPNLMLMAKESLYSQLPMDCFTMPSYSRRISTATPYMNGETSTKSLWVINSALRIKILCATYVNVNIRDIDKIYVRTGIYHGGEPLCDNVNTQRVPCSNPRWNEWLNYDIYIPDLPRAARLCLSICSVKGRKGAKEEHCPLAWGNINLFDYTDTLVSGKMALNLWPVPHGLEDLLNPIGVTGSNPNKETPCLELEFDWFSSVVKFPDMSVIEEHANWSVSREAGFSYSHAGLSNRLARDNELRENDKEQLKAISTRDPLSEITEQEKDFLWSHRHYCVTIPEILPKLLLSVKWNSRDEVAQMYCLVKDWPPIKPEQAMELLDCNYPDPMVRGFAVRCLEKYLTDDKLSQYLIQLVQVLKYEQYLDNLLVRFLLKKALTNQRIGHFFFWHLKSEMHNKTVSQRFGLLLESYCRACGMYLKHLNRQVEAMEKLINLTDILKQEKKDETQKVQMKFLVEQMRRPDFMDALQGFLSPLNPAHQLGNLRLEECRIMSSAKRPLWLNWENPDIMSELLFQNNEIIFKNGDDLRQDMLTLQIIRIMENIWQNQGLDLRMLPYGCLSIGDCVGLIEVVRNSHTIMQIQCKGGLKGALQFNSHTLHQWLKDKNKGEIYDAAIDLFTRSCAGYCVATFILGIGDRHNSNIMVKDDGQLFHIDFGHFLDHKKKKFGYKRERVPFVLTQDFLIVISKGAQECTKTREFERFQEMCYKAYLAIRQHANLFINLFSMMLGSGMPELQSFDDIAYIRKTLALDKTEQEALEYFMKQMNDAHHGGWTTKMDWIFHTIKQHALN
# Sequence of PI3K-α (P27986 whole entry partner, species assumed): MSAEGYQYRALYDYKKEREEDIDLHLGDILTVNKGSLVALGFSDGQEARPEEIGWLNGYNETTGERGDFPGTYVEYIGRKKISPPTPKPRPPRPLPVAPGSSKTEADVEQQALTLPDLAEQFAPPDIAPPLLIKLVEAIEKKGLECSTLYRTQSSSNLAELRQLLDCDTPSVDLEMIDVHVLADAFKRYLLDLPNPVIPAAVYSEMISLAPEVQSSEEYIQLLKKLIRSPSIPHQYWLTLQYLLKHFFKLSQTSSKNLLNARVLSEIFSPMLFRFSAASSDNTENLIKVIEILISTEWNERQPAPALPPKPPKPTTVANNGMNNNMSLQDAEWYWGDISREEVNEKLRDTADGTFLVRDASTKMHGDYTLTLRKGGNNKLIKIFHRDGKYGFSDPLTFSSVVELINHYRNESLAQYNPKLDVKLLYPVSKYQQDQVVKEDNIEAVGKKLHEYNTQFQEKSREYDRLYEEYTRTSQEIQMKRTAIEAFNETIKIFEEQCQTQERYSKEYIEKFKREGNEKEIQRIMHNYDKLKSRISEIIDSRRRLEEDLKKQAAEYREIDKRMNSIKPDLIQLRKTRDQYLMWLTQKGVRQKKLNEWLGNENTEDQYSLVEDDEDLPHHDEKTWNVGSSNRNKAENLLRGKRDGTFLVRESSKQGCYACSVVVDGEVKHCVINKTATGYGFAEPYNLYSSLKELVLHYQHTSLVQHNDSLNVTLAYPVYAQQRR
# Sequence of PI3K-γ (P48736 whole entry, species assumed): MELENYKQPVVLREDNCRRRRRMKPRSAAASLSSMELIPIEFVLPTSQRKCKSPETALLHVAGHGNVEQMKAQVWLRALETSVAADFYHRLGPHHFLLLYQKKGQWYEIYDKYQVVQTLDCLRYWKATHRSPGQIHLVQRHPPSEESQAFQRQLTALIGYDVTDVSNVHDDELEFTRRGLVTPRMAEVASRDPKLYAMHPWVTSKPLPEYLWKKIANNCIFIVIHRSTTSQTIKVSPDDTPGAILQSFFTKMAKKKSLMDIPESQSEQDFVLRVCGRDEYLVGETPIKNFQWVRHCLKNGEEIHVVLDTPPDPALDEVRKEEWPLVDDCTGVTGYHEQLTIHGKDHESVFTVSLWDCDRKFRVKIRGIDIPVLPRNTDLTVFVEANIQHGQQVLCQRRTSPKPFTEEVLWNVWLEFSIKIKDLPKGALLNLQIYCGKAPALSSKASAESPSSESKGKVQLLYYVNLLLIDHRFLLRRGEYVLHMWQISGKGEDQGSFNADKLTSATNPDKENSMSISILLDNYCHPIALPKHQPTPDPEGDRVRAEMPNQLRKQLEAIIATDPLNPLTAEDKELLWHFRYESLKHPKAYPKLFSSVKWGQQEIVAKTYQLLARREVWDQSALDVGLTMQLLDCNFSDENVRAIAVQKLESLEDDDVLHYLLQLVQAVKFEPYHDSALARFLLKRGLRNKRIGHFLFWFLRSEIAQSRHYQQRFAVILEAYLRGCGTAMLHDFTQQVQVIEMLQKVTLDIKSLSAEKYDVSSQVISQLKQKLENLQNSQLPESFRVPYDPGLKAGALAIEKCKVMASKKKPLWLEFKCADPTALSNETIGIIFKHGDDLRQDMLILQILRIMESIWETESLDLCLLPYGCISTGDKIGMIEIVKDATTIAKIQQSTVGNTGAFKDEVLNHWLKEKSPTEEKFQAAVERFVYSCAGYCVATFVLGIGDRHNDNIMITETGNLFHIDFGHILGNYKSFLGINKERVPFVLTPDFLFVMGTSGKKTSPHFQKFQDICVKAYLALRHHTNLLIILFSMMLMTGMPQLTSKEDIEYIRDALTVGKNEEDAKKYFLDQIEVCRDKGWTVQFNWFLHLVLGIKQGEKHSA
Compound,IC50 (PI3K-α) [nM],IC50 (PI3K-γ) [nM],"IC50 [1, 4] [nM]","IC50 ([1]; Homo sapiens, LNCaP, 72 h) [nM]",IC50 (PI3K-α; listed as 334) [nM],IC50 (PI3K-γ; listed as 334) [nM],IC50 (Human mTOR (FLAG-TOR)) [nM],"IC50 ([2]; MDA-MB-361, 72 h) [nM]",IC50 [3] [nM],IC50 ([2]; 72 h) [nM]
"1-(4-{4-[(1-methylethyl)amino]-6-(8-oxa-3-azabicyclo[3.2.1]oct-3-yl)-1,3,5-triazin-2-yl}phenyl)-3-[6-(4-methylpiperazin-1-yl)pyridin-3-yl]urea [Example 216]",521,7030,50,,,,,,,
"O=C(Nc1ccncc1)Nc1ccc(-c2nc(OCCN3CCCCC3)nc(N3CC4CCC(C3)O4)n2)cc1 [Example 144, 1-{4-[4-(8-oxa-3-azabicyclo[3.2.1]oct-3-yl)-6-(2-piperidin-1-ylethoxy)-1,3,5-triazin-2-yl]phenyl}-3-pyridin-4-ylurea]",,,,1500,,,,,,
"CNC(=O)Nc1ccc(-c2nc(N3CC4CCC(C3)O4)nc(N3CC4CNCC(C3)O4)n2)cc1 [Example 234, 1-methyl-3-{4-[4-(8-oxa-3-azabicyclo[3.2.1]oct-3-yl)-6-(9-oxa-3,7-diazabicyclo[3.3.1]non-3-yl)-1,3,5-triazin-2-yl]phenyl}urea]",4530,9530,,10000,,,,,,
"O=C(Nc1ccc(-c2nc(N3CC4CCC(C3)O4)nc(N3CC4CNCC(C3)O4)n2)cc1)Nc1cccnc1 [Example 235, 1-{4-[4-(8-oxa-3-azabicyclo[3.2.1]oct-3-yl)-6-(9-oxa-3,7-diazabicyclo[3.3.1]non-3-yl)-1,3,5-triazin-2-yl]phenyl}-3-pyridin-3-ylurea]",3210,4110,,7900,,,,,,
"O=C(Nc1ccc(-c2nc(N3C4CCC3COC4)nc(N3C4CCC3COC4)n2)cc1)N1CCNCC1 [Example 286, N-[4-(4,6-di-3-oxa-8-azabicyclo[3.2.1]oct-8-yl-1,3,5-triazin-2-yl)phenyl]piperazine-1-carboxamide]",4200,,,32000,,,,,,
"CN1CCN(c2ccc(NC(=O)Nc3ccc(-c4nc(N5C[C@H]6C[C@@H]5CO6)nc(N5C[C@H]6C[C@@H]5CO6)n4)cc3)cc2)CC1 [Example 314, 1-{4-[4,6-di-(1R,4R)-2-oxa-5-azabicyclo[2.2.1]hept-5-yl-1,3,5-triazin-2-yl]phenyl}-3-[4-(4-methylpiperazin-1-yl)phenyl]urea]",1820,10000,550,,,,,,,
"CNC(=O)Nc1ccc(-c2nc(Nc3ccc(N4CCN(C)CC4)cc3)nc(N3CC4CCC(C3)O4)n2)cc1 [Example 317, 1-methyl-3-{4-[4-{[4-(4-methylpiperazin-1-yl)phenyl]amino}-6-(8-oxa-3-azabicyclo[3.2.1]oct-3-yl)-1,3,5-triazin-2-yl]phenyl}urea]",216,6830,,120,,,,,,
"CN1CCN(c2ccc(Nc3nc(-c4ccc(NC(=O)Nc5ccc(C(N)=O)cc5)cc4)nc(N4CC5CCC(C4)O5)n3)cc2)CC1 [Example 318, 4-[({4-[4-{[4-(4-methylpiperazin-1-yl)phenyl]amino}-6-(8-oxa-3-azabicyclo[3.2.1]oct-3-yl)-1,3,5-triazin-2-yl]phenyl}carbamoyl)amino]benzamide]",15.5,679,,1000,16,680,,,,
"O=C(Nc1ccncc1)Nc1ccc(-c2nc(N3C4CCC3COC4)nc(N3[C@H](CO)CC[C@@H]3CO)n2)cc1 [Example 347, 1-(4-{4-[(2R,5S)-2,5-bis(hydroxymethyl)pyrrolidin-1-yl]-6-(3-oxa-8-azabicyclo[3.2.1]oct-8-yl)-1,3,5-triazin-2-yl}phenyl)-3-pyridin-4-ylurea]",796,8440,,9,,,,,,
"CC(C)N1CCN(c2ccc(NC(=O)Nc3ccc(-c4nc(C5CCOCC5)nc(N5C6CCC5COC6)n4)cc3)cc2)CC1 [Example 435, 1-(4-(4-(3-oxa-8-azabicyclo[3.2.1]octan-8-yl)-6-(tetrahydro-2H-pyran-4-yl)-1,3,5-triazin-2-yl)phenyl)-3-(4-(4-isopropylpiperazin-1-yl)phenyl)urea]",,4600,,4,,,,,,
"CC(C)N1CCN(C(=O)c2ccc(NC(=O)Nc3ccc(-c4nc(C5CCOCC5)nc(N5C6CCC5COC6)n4)cc3)cc2)CC1 [Example 439, 1-(4-(4-(3-oxa-8-azabicyclo[3.2.1]octan-8-yl)-6-(tetrahydro-2H-pyran-4-yl)-1,3,5-triazin-2-yl)phenyl)-3-(4-(4-isopropylpiperazine-1-carbonyl)phenyl)urea]",,,,1,,,,,,
"CCN1CCN(C(=O)c2ccc(NC(=O)Nc3ccc(-c4nc(N5CCOCC5)nc(N5C6COCC5COC6)n4)cc3)cc2)CC1 [Example 806, 1-{4-[4-(3,7-dioxa-9-azabicyclo[3.3.1]non-9-yl)-6-morpholin-4-yl-1,3,5-triazin-2-yl]phenyl}-3-{4-[(4-ethylpiperazin-1-yl)carbonyl]phenyl}urea]",4.5,47,,,,,0.24,< 3.2,9,
"CN(C)C1CCN(C(=O)c2ccc(NC(=O)Nc3ccc(-c4nc(N5CCOCC5)nc(N5CC6CCC5CO6)n4)cc3)cc2)CC1 (stereo not shown) [Example 810, 1-(4-{[4-(dimethylamino)piperidin-1-yl]carbonyl}phenyl)-3-{4-[4-morpholin-4-yl-6-(2-oxa-5-azabicyclo[2.2.2]oct-5-yl)-1,3,5-triazin-2-yl]phenyl}urea]",2.8,30.5,,,,,2.05,2,26,
"CC(C)N1CCN(C(=O)c2ccc(NC(=O)Nc3ccc(-c4nc(N5CCOCC5)nc(N5CC6CCC5CO6)n4)cc3)cc2)CC1 (stereo not shown) [Example 811, 1-(4-{[4-(1-methylethyl)piperazin-1-yl]carbonyl}phenyl)-3-{4-[4-morpholin-4-yl-6-(2-oxa-5-azabicyclo[2.2.2]oct-5-yl)-1,3,5-triazin-2-yl]phenyl}urea]",3.2,33.5,,,,,1.5,2,19,
"CCN1CCN(C(=O)c2ccc(NC(=O)Nc3ccc(-c4nc(N5CCOCC5)nc(N5CC6CCC5CO6)n4)cc3)cc2)CC1 (stereo not shown) [Example 812, 1-{4-[(4-ethylpiperazin-1-yl)carbonyl]phenyl}-3-{4-[4-morpholin-4-yl-6-(2-oxa-5-azabicyclo[2.2.2]oct-5-yl)-1,3,5-triazin-2-yl]phenyl}urea]",2.8,30.5,,,,,2,3,23,
"CN1CCN(C(=O)c2ccc(NC(=O)Nc3ccc(-c4nc(N5CCOCC5)nc(N5CC6CCC5CO6)n4)cc3)cc2)CC1 (stereo not shown) [Example 813, 1-{4-[(4-methylpiperazin-1-yl)carbonyl]phenyl}-3-{4-[4-morpholin-4-yl-6-(2-oxa-5-azabicyclo[2.2.2]oct-5-yl)-1,3,5-triazin-2-yl]phenyl}urea]",3.1,30,,,,,1.9,< 3.2,24,
"O=C(Nc1ccc(C(=O)N2CCNCC2)cc1)Nc1ccc(-c2nc(N3CCOCC3)nc(N3CC4CCC3CO4)n2)cc1 (stereo not shown) [Example 814, 1-{4-[4-morpholin-4-yl-6-(2-oxa-5-azabicyclo[2.2.2]oct-5-yl)-1,3,5-triazin-2-yl]phenyl}-3-[4-(piperazin-1-ylcarbonyl)phenyl]urea]",0.8,10,,,,,1.05,4,37,
"CN(C)CCNC(=O)c1ccc(NC(=O)Nc2ccc(-c3nc(N4CCOCC4)nc(N4CC5CCC4CO5)n3)cc2)cc1 (stereo not shown) [Example 815, N-[2-(dimethylamino)ethyl]-4-[({4-[4-morpholin-4-yl-6-(2-oxa-5-azabicyclo[2.2.2]oct-5-yl)-1,3,5-triazin-2-yl]phenyl}carbamoyl)amino]benzamide]",1.9,24,,,,,0.765,,24,3
"CN(C)CCN(C)C(=O)c1ccc(NC(=O)Nc2ccc(-c3nc(N4CCOCC4)nc(N4CC5CCC4CO5)n3)cc2)cc1 (stereo not shown) [Example 816, N-[2-(dimethylamino)ethyl]-N-methyl-4-[({4-[4-morpholin-4-yl-6-(2-oxa-5-azabicyclo[2.2.2]oct-5-yl)-1,3,5-triazin-2-yl]phenyl}carbamoyl)amino]benzamide]",2.4,26,,,,,1.06,,11,2
"O=C(Nc1ccncc1)Nc1ccc(-c2nc(N3CCOCC3)nc(N3C4COCC3[C@@H](O)C4)n2)cc1 (stereo partly drawn) [Example 818, 1-(4-{4-[(6S)-6-hydroxy-3-oxa-8-azabicyclo[3.2.1]oct-8-yl]-6-morpholin-4-yl-1,3,5-triazin-2-yl}phenyl)-3-pyridin-4-ylurea]",37.7,185,,,,,2,,237,129
"O=C(Nc1ccncc1)Nc1ccc(-c2nc(N3CCOCC3)nc(N3C4COCC3C(OCc3ccccc3)C4)n2)cc1 (stereo not shown) [Example 819, 1-(4-{4-[6-(benzyloxy)-3-oxa-8-azabicyclo[3.2.1]oct-8-yl]-6-morpholin-4-yl-1,3,5-triazin-2-yl}phenyl)-3-pyridin-4-ylurea]",44,358,,,,,17,,768,442
"CN1CCN(c2ccc(NC(=O)Nc3ccc(-c4nc(N5C6COCC5COC6)nc(N5C6COCC5COC6)n4)cc3)cc2)CC1 [Example 823, 1-[4-(4,6-di-3,7-dioxa-9-azabicyclo[3.3.1]non-9-yl-1,3,5-triazin-2-yl)phenyl]-3-[4-(4-methylpiperazin-1-yl)phenyl]urea]",661,2790,,55,,,,,,
